Results taken from US20120059005A1, “COMBINATION OF (A) A PHOSPHOINOSITIDE 3-KINASE INHIBITOR AND (B) AN ANTIDIABETIC COMPOUND FOR USE IN THE TREATMENT OF PROLIFERATIVE DISEASES” (NOVARTIS AG, priority 2009, published 2012).
Read-outs that look alike come from different tables or passages of the source.

Experiments:
[1] = test system: H520 non-small cell lung tumors; assay: H520 xenograft 20-day tumor growth inhibition assay; assay type: in vivo, nude mice; conditions: for Mean Tumor Vol. Change / Regression / T/C: Day 20
Method: EGFR-null H520 human non-small cell lung cancer (NSCLC) cells are treated with different doses of 2-Methyl-2-[4-(3-methyl-2-oxo-8-quinolin-3-yl-2, 3-dihydro-imidazo[4,5-c]quinolin-1-yl)-phenyl]-propionitrile monotosylate salt (also known as COMPOUND A) or 5-(2,6-di-morpholin-4-yl-pyrimidin-4-yl)-4-trifluoromethyl-pyridin-2-ylamine hydrochloride salt (also known as COMPOUND C), a single dose of metformin or both agents in combination, The H520 human NSCLC cells (NCl-H520, ATCC-HTB-182, available from American Type Culture Collection, Rockville, Md. US) are isolated from a sample of a lung mass taken from a patient with squamous cell carcinoma of the lung (Banks-Schlegel et at Cancer Res, 45(3): 1187-1197 (1985).
H520 tumor cells are grown in RPMI 1640 medium containing 100 units/mL penicillin G sodium, 100 μg/ML streptomycin sulfate, and 25 µg/mL gentamicin. The medium is supplemented with 10% fetal bovine serum, 2 mM glutamine, and 1 mM sodium pyruvate, and buffered with 10 mM HEPES and 0.075% sodium bicarbonate. The cells are cultured in tissue culture flasks in a humidified incubator at 37° C., in an atmosphere of 5% CO2 and 95% air. The cells are harvested for injection into 8-week old female nu/nu (nude) mice (Harlan Laboratories, Indianapolis, Ind.) by detaching the monolayers with 1× trypsin and resuspending at 5×10^7cells/mL in phosphate-buffered saline containing 50% Matrigel.
(§1) 0.2 mL of H520 tumor cell suspension (1×10^7 cells) is injected subcutaneously in the right flank of 8-week old female nu/nu (nude) mice (Harlan Laboratories, Indianapolis, Ind.) having a body weight (BW) range of 18.1-26.9 g on Day 1 of the study. Tumors are monitored twice weekly and then daily as their mean volume approaches 120-180 mm^3. […] Tumor weight can be estimated with the assumption that 1 mg is equivalent to 1 mrn^3 of tumor volume.
(§2) The 11 groups of nude mice are treated as follows. One group of eight mice serves as Controls (C or Control) for all analyses and is administered intraperitoneally (i.p.) 50 mM sodium acetate at pH 4 (Vehicle 1) and then administered by oral gavage (p.o.) a composition comprising 10% N-methylpyrrolidone: 90% polyethylene glycol 300 (PEG 300) (Vehicle 2). […] Metformin is dissolved in 50 mM sodium acetate at pH 4 for dosing,
(§3) Compound C is stored at −20° C. protected from light. Stock solutions (10×) in 100% N-methylpyrrolidone (NMP) are prepared every five days, aliquotted, and stored in the dark at room temperature. On each treatment day, stock solution aliquots are diluted with polyethylene glycol (PEG300) to provide the formulated drug (Compound A or Compound C) in 10% NMP: 90% PEG300, Dosing solutions are protected from light and the formulated drug is administered within 1 hour after preparation.
(§4) For combination therapies, Compound A or Compound C is administered by oral gavage (p.o.) within 30 minutes after the intraperitoneal (i.p.) administration of metformin, except on Day 20 when Compound A or Compound C is given immediately after metformin.
(§5) Paclitaxel (Natural Pharmaceuticals, Inc., Beverly, Mass., USA) is administered by bolus tail-vein injections (i.v.) once daily on alternate days for five doses. Paclitaxel is dissolved in 50% ethanol and 50% Cremophor® EL to prepare a 10× stock solution stored at room temperature. On each day of dosing, an aliquot of the pad itaxel stock solution is diluted with 5% dextrose in water to yield a dosing solution containing 5% ethanol and 5% Cremophor® EL.
Statistical and graphical analyses was conducted by determining the difference in tumor volume between Day 1 (the start of dosing) and the endpoint day for each animal that remained on study on Day 20. Antitumor activity is expressed as % T/C (comparing the mean tumor volume change between the endpoint day and Day 1 for the treatment group to the Control). A T/C≦40% is classified as potential therapeutically active.

[2] = Method: 0.2 mL of H460 tumor cell suspension (1×10^7 cells) is injected subcutaneously in the right flank of 9-week old female nu/nu (nude) mice (Harlan Laboratories, Indianapolis, Ind.) having a body weight (BW) range of 18.1-26.9 g on Day 1 of the study. Tumors are monitored twice weekly and then daily as their mean volume approaches 100-150 mm^3. Ten days after implantation, the mice are sorted into 11 groups of eight mice having individual tumor sizes of 75-196 mm^3 and a group mean tumor size of 119-122 mm^3. Tumor volume in mm^3 is determined using the formula [(width)^2×(length)]/2, where width width of the tumor in mm and length length of the tumor in mm. Tumor weight can be estimated with the assumption that 1 mg is equivalent to 1 mm^3 of tumor volume.
as §2, with “N-methylpyrrolidone” for “N-methylpyrrolidone:”, “(PEG300)” for “(PEG 300)”, “dosing.” for “dosing,”
Compound A is stored at −20° C. Compound C is stored at −20° C. protected from light. Stock solutions (10×) in 100% N-rnethylpyrrolidone (NMP) are prepared every five days, aliquotted, and stored in the dark at room temperature. On each treatment day, stock solution aliquots are diluted with polyethylene glycol (PEG300) to provide the formulated drug (Compound A or Compound C) in 10% NMP: 90% PEG300. Dosing solutions are protected from light, and the formulated drug is administered within 1 hour after preparation.
For combination therapies, Compound A or Compound C are administered by oral gavage (p.o.) within 30 minutes after the intraperitoneal (i.p.) administration of metformin, except on Day 20 when Compound A or Compound C is given immediately after metformin.
as §5, with “50% Crernophor®” for “50% Cremophor®”, “the paclitaxel” for “the pad itaxel”
In all groups, the dosing volume of 10 mL/kg (0.2 mL/20 g mouse) is scaled to the weight of each animal as determined on the day of dosing, except on weekends when the previous BW is carried fontvard.

[3] = remark: listed apart in the source
Method: as §1, §2, §3, §4, §5

[4] = Metformin 192.3 mg/kg i.p., 1x daily
[5] = Compound A 41.1 mg/kg p.o., 1x daily
[6] = Compound A 68.5 mg/kg p.o., 1x daily
[7] = female, nu/nu (nude), mouse, in vivo, po, 41.1 mg/kg
[8] = female, nu/nu (nude), mouse, in vivo, po, 68.5 mg/kg
[9] = Paclitaxel 30 mg/kg i.v., 1x on alternate days for 5 doses
[10] = Compound C 32.7 mg/kg p.o., 1x daily
[11] = Compound C 54.4 mg/kg p.o., 1x daily until day 7 (stopped due to toxicity)

For `CN(C)C(=N)N=C(N)N` [Metformin, dimethyldiguanide, reference compound], the “Mean Tumor Vol. Change” value [1, 4] was 1003 mm^3, the Regression [1, 4] was “None” and the T/C [1, 4] was 101% (ns^†). For the same compound, the “modulation of tumor growth in the 20-day tumor growth inhibition assay” value ([1]; metformin monotherapy at 192.3 mg/kg) was “did not appear to modulate tumor growth”, the Dead/Total [2, 4] was 0/8 and the Dead/Total [3, 4] was 0/8.
With `Cn1c(=O)n(-c2ccc(C(C)(C)C#N)cc2)c2c3cc(-c4cnc5ccccc5c4)ccc3ncc21` [Compound A, 2-Methyl-2-[4-(3-methyl-2-oxo-8-quinolin-3-yl-2,3-dihydro-imidazo[4,5-c]quinolin-1-yl)-phenyl]-propionitrile] the “Mean Tumor Vol. Change” value [1, 5] was 598 mm^3, the Regression [1, 5] was “None” and the T/C [1, 5] was 60% (ns^†). The “Mean Tumor Vol. Change” value [1, 6] was 466 mm^3, the Regression [1, 6] was “None” and the T/C [1, 6] was 47% (ns^†). The Dead/Total [2, 7] was 0/8, the Dead/Total [2, 8] was 0/8 and the Dead/Total [3, 7] was 0/8. For the same compound, the Dead/Total [3, 8] was 1/8 and the “Mean Body Weight Change” value ([3]; mouse, in vivo, po, 68.5 mg/kg) was −1.3%, Day 7.
With `CC(=O)O[C@H]1C(=O)[C@@]2(C)[C@H]([C@H](OC(=O)c3ccccc3)[C@]3(O)C[C@H](OC(=O)[C@H](O)[C@@H](NC(=O)c4ccccc4)c4ccccc4)C(C)=C1C3(C)C)[C@]1(OC(C)=O)CO[C@@H]1C[C@@H]2O` [Paclitaxel, reference compound] the “Mean Tumor Vol. Change” value [1, 9] was 53 mm^3, the Regression [1, 9] was “None” and the T/C [1, 9] was 5%. The T/C ([1]; Paclitaxel 30 mg/kg i.v., 1x on alternate days for 5 doses, listed as paclitaxel) was 5%, the Dead/Total [2, 9] was 0/8 and the Dead/Total [3, 9] was 0/8.
For `Nc1cc(C(F)(F)F)c(-c2cc(N3CCOCC3)nc(N3CCOCC3)n2)cn1` [Compound C, 5-(2,6-di-morpholin-4-yl-pyrimidin-4-yl)-4-trifluoromethyl-pyridin-2-ylamine], the “Mean Tumor Vol. Change” value [1, 10] was 542 mm^3, the Regression [1, 10] was “None” and the T/C [1, 10] was 54% (ns^†). For the same compound, the “Mean Tumor Vol. Change” value [1, 11] was 475 mm^3, the Regression [1, 11] was “None” and the T/C ([1]; Compound C 54.4 mg/kg p.o., 1x daily until day 7 (stopped due to toxicity), not evaluable (ne)) was 48% (ne).
